Assay results published in patent US6872690B2, “Herbicidal 2-alkynyl-pyri (mi) dines” (WYETH, priority 2001, dated 2005).

Key:
Type in all cases: in vivo
[1] = tested on: Abutilon theophrasti; assay: Pre-emergence test; conditions: 0.400 kg/ha, 3 weeks after treatment
Method: (§1) To evaluate their herbicidal activity, compounds according to the invention are tested using a representative range of plants:
(§2) The pre-emergence tests involve spraying a liquid formulation of the compound onto the soil in which the seeds of the plant species mentioned above has recently been sown.
(§3) The soil used in the tests is a prepared horticultural loam. The formulations used in the tests are prepared from solutions of the test compounds in acetone containing 0.4% by weight of an alkyl-phenol/ethylene oxide condensate available under the trade mark TRITON X-155. These acetone solutions are diluted with water and the resulting formulations applied at dosage levels corresponding to 0.013 kg, 0.025 kg, 0.100 kg or 0.400 kg of active material per hectare in a volume equivalent to 900 litres per hectare. In these tests untreated sown soil are used as controls. From 2 to 4 weeks after treatment, the tests are terminated and each pot is examined and rated according to the rating system set forth below: […]

[2] = tested on: Alopecurus myosuroides; assay: Pre-emergence test; conditions: 3 weeks after treatment
Method: as §1, §2, §3

[3] = tested on: Cassia obtusifolia; assay: Pre-emergence test; conditions: 3 weeks after treatment
Method: as §1, §2, §3

[4] = tested on: Digitaria sanguinalis; assay: Pre-emergence test; conditions: 3 weeks after treatment
Method: as §1, §2, §3

[5] = tested on: Echinochloa crus-galli; assay: Pre-emergence test; conditions: 3 weeks after treatment
Method: as §1, §2, §3

[6] = tested on: Galium aparine; assay: Pre-emergence test; conditions: 3 weeks after treatment
Method: as §1, §2, §3

[7] = tested on: Glycine max; assay: Pre-emergence test; conditions: 0.400 kg/ha, 3 weeks after treatment
Method: as §1, §2, §3

[8] = tested on: Ipomoea hederacea; assay: Pre-emergence test; conditions: 0.400 kg/ha, 3 weeks after treatment
Method: as §1, §2, §3

[9] = tested on: Lamium purpureum; assay: Pre-emergence test; conditions: 3 weeks after treatment
Method: as §1, §2, §3

[10] = tested on: Matricaria inodora; assay: Pre-emergence test; conditions: 3 weeks after treatment
Method: as §1, §2, §3

[11] = tested on: Orysa sativa; assay: Pre-emergence test; conditions: 3 weeks after treatment
Method: as §1, §2, §3

[12] = tested on: Setaria viridis; assay: Pre-emergence test; conditions: 3 weeks after treatment
Method: as §1, §2, §3

[13] = tested on: Stellaria media; assay: Pre-emergence test; conditions: 3 weeks after treatment
Method: as §1, §2, §3

[14] = tested on: Triticum aestivum; assay: Pre-emergence test; conditions: 3 weeks after treatment
Method: as §1, §2, §3

[15] = tested on: Zea mays; assay: Pre-emergence test; conditions: 3 weeks after treatment
Method: as §1, §2, §3

[16] = tested on: Abutilon theophrasti; assay: Post-emergence herbicidal activity test; conditions: 2-4 weeks after treatment
Method: as §1
(§4) These acetone solutions are diluted with water and the resulting formulations applied at dosage levels equivalent of about 0.025 to 0. 4 kg per hectare of test compound per pot. After spraying the plants are placed on greenhouse benches and are cared for in the usual manner, commensurate with conventional greenhouse practices. From 2 to 4 weeks after treatment, the seedling plants are examined and rated according to the rating system provided above.

[17] = tested on: Alopecurus myosuroides; assay: Post-emergence herbicidal activity test; conditions: 2-4 weeks after treatment
Method: as §1, §4

[18] = tested on: Cassia obtusifolia; assay: Post-emergence herbicidal activity test; conditions: 2-4 weeks after treatment
Method: as §1, §4

[19] = tested on: Digitaria sanguinalis; assay: Post-emergence herbicidal activity test; conditions: 2-4 weeks after treatment
Method: as §1, §4

[20] = tested on: Echinochloa crus-galli; assay: Post-emergence herbicidal activity test; conditions: 2-4 weeks after treatment
Method: as §1, §4

[21] = tested on: Galium aparine; assay: Post-emergence herbicidal activity test; conditions: 2-4 weeks after treatment
Method: as §1, §4

[22] = tested on: Glycine max; assay: Post-emergence herbicidal activity test; conditions: 2-4 weeks after treatment
Method: as §1, §4

[23] = tested on: Ipomoea hederacea; assay: Post-emergence herbicidal activity test; conditions: 2-4 weeks after treatment
Method: as §1, §4

[24] = tested on: Matricaria inodora; assay: Post-emergence herbicidal activity test; conditions: 2-4 weeks after treatment
Method: as §1, §4

[25] = tested on: Orysa sativa; assay: Post-emergence herbicidal activity test; conditions: 2-4 weeks after treatment
Method: as §1, §4

[26] = tested on: Setaria viridis; assay: Post-emergence herbicidal activity test; conditions: 2-4 weeks after treatment
Method: as §1, §4

[27] = tested on: Stellaria media; assay: Post-emergence herbicidal activity test; conditions: 2-4 weeks after treatment
Method: as §1, §4

[28] = tested on: Triticum aestivum; assay: Post-emergence herbicidal activity test; conditions: 2-4 weeks after treatment
Method: as §1, §4

[29] = tested on: Zea mays; assay: Post-emergence herbicidal activity test; conditions: 2-4 weeks after treatment
Method: as §1, §4

Cn1nc(C(F)(F)F)cc1Oc1cccc(C#Cc2ccccc2)n1 [Example 31]
Assessment (pre-emergence application) ABUTH [1]: 2 (2-Slight effect)
Assessment (pre-emergence application) ALOMY ([2]; 0.025 kg/ha): 0 (0-No effect)
Assessment (pre-emergence application) ALOMY ([2]; 0.100 kg/ha): 1 (1-Trace effect)
Assessment (pre-emergence application) ALOMY ([2]; 0.400 kg/ha): 3 (3-Moderate effect)
Assessment (pre-emergence application) CASOB ([3]; 0.025 kg/ha): 1 (1-Trace effect)
Assessment (pre-emergence application) CASOB ([3]; 0.100 kg/ha): 3 (3-Moderate effect)
Assessment (pre-emergence application) CASOB ([3]; 0.400 kg/ha): 3 (3-Moderate effect)
Assessment (pre-emergence application) DIGSA ([4]; 0.025 kg/ha): 2 (2-Slight effect)
Assessment (pre-emergence application) DIGSA ([4]; 0.100 kg/ha): 5 (5-Definite injury)
Assessment (pre-emergence application) DIGSA ([4]; 0.400 kg/ha): 8 (8-Approaching complete kill)
Assessment (pre-emergence application) ECHCG ([5]; 0.025 kg/ha): 0 (0-No effect)
Assessment (pre-emergence application) ECHCG ([5]; 0.100 kg/ha): 2 (2-Slight effect)
Assessment (pre-emergence application) ECHCG ([5]; 0.400 kg/ha): 5 (5-Definite injury)
Assessment (pre-emergence application) GALAP ([6]; 0.025 kg/ha): 1 (1-Trace effect)
Assessment (pre-emergence application) GALAP ([6]; 0.100 kg/ha): 2 (2-Slight effect)
Assessment (pre-emergence application) GLXMA [7]: 1 (1-Trace effect)
Assessment (pre-emergence application) IPOHE [8]: 2 (2-Slight effect)
Assessment (pre-emergence application) LAMPU ([9]; 0.025 kg/ha): 7 (7-Good herbicidal effect)
Assessment (pre-emergence application) LAMPU ([9]; 0.100 kg/ha): 8 (8-Approaching complete kill)
Assessment (pre-emergence application) LAMPU ([9]; 0.400 kg/ha): 8 (8-Approaching complete kill)
Assessment (pre-emergence application) MATIN ([10]; 0.025 kg/ha): 2 (2-Slight effect)
Assessment (pre-emergence application) MATIN ([10]; 0.100 kg/ha): 6 (6-Herbicidal effect)
Assessment (pre-emergence application) MATIN ([10]; 0.400 kg/ha): 7 (7-Good herbicidal effect)
Assessment (pre-emergence application) ORYSA ([11]; 0.025 kg/ha): 0 (0-No effect)
Assessment (pre-emergence application) ORYSA ([11]; 0.100 kg/ha): 1 (1-Trace effect)
Assessment (pre-emergence application) ORYSA ([11]; 0.400 kg/ha): 1 (1-Trace effect)
Assessment (pre-emergence application) SETVI ([12]; 0.025 kg/ha): 2 (2-Slight effect)
Assessment (pre-emergence application) SETVI ([12]; 0.100 kg/ha): 6 (6-Herbicidal effect)
Assessment (pre-emergence application) SETVI ([12]; 0.400 kg/ha): 8 (8-Approaching complete kill)
Assessment (pre-emergence application) STEME ([13]; 0.025 kg/ha): 2 (2-Slight effect)
Assessment (pre-emergence application) STEME ([13]; 0.100 kg/ha): 8 (8-Approaching complete kill)
Assessment (pre-emergence application) STEME ([13]; 0.400 kg/ha): 9 (9-Complete kill)
Assessment (pre-emergence application) TRZWA ([14]; 0.025 kg/ha): 0 (0-No effect)
Assessment (pre-emergence application) TRZWA ([14]; 0.100 kg/ha): 0 (0-No effect)
Assessment (pre-emergence application) TRZWA ([14]; 0.400 kg/ha): 0 (0-No effect)
Assessment (pre-emergence application) ZEAMX ([15]; 0.025 kg/ha): 1 (1-Trace effect)
Assessment (pre-emergence application) ZEAMX ([15]; 0.100 kg/ha): 2 (2-Slight effect)
Assessment (pre-emergence application) ZEAMX ([15]; 0.400 kg/ha): 2 (2-Slight effect)
Post-emergence application ABUTH ([16]; 0.100 kg/ha): 3 (3-Moderate effect)
Post-emergence application ABUTH ([16]; 0.400 kg/ha): 5 (5-Definite injury)
Post-emergence application ALOMY ([17]; 0.100 kg/ha): 3 (3-Moderate effect)
Post-emergence application ALOMY ([17]; 0.400 kg/ha): 5 (5-Definite injury)
Post-emergence application CASOB ([18]; 0.100 kg/ha): 6 (6-Herbicidal effect)
Post-emergence application CASOB ([18]; 0.400 kg/ha): 6 (6-Herbicidal effect)
Post-emergence application DIGSA ([19]; 0.100 kg/ha): 4 (4-Injury)
Post-emergence application DIGSA ([19]; 0.400 kg/ha): 4 (4-Injury)
Post-emergence application ECHCG ([20]; 0.100 kg/ha): 3 (3-Moderate effect)
Post-emergence application ECHCG ([20]; 0.400 kg/ha): 5 (5-Definite injury)
Post-emergence application GALAP ([21]; 0.100 kg/ha): 4 (4-Injury)
Post-emergence application GALAP ([21]; 0.400 kg/ha): 6 (6-Herbicidal effect)
Post-emergence application GLXMA ([22]; 0.100 kg/ha): 4 (4-Injury)
Post-emergence application GLXMA ([22]; 0.400 kg/ha): 4 (4-Injury)
Post-emergence application IPOHE ([23]; 0.100 kg/ha): 7 (7-Good herbicidal effect)
Post-emergence application IPOHE ([23]; 0.400 kg/ha): 8 (8-Approaching complete kill)
Post-emergence application MATIN ([24]; 0.100 kg/ha): 3 (3-Moderate effect)
Post-emergence application MATIN ([24]; 0.400 kg/ha): 4 (4-Injury)
Post-emergence application ORYSA ([25]; 0.100 kg/ha): 1 (1-Trace effect)
Post-emergence application ORYSA ([25]; 0.400 kg/ha): 2 (2-Slight effect)
Post-emergence application SETVI ([26]; 0.100 kg/ha): 5 (5-Definite injury)
Post-emergence application SETVI ([26]; 0.400 kg/ha): 7 (7-Good herbicidal effect)
Post-emergence application STEME ([27]; 0.100 kg/ha): 5 (5-Definite injury)
Post-emergence application STEME ([27]; 0.400 kg/ha): 6 (6-Herbicidal effect)
Post-emergence application TRZWA ([28]; 0.100 kg/ha): 1 (1-Trace effect)
Post-emergence application TRZWA ([28]; 0.400 kg/ha): 2 (2-Slight effect)
Post-emergence application ZEAMX ([29]; 0.100 kg/ha): 2 (2-Slight effect)
Post-emergence application ZEAMX ([29]; 0.400 kg/ha): 3 (3-Moderate effect)
